According to patent publication US20240254119A1 (THIRD HARMONIC BIO, INC., priority 2022, published 2024):

Target: T1, wtKIT (Homo sapiens, UniProt P10721)
T1 construct: 1888289AM in the reaction mixtures
Assay: HTRF biochemical assay, wtKIT (phosphorylation of a peptide substrate)
Conditions: Table 4
Experimental: Exemplary compounds were tested for ability to inhibit the phosphorylation of a peptide substrate by the tyrosine kinase wt KIT, PDGFRα, or CSF-1R. Assay procedures and results are described below.
Enzyme, substrate, and cofactors (ATP and Mn^2+) are combined in a well of a microtiter plate and incubated for 3 hours at 25° C. At the end of the incubation, the reaction is quenched by the addition of an EDTA-containing buffer.
The substrate used in the CSF-1R and PDGFRα assay is FAM-[…]-CONH2 (FAM is carboxyfluorescein). Peptide should be >95% purity. The substrate for the KIT assay is FAM-[…]-NH2.
• 1. To a well of a 384-wellplate add 5 μL of 2× enzyme buffer (or control). • 2. Add 100 nL of 100× compound. Enzyme and compound may be pre-incubated at this time if desired. • 3. Add 5 μL of 2× substrate buffer. • 4. Incubate plate at 25° C. for 3 hours. • 5. Add 10 uL of anti-phosphotyrosine antibody buffer. • 6. Read plate in BioTek Synergy Reader. Reaction Conditions for wtKIT Assay
• 100 mM HEPES, pH 7.5 0.1% BSA • 0.01% Triton x-100 • 1 mM DTT • 10 mM MnCl2 • 10 μM Sodium Orthovanadate • 10 μM Beta-Glycerophosphate • 400 μM ATP • 1% DMSO (from compound) • 1 μM FAM-[…]-CONH2, 5.0 nM wtKIT Enzyme (1888289AM)* • *Specific activity may vary from lot to lot. Enzyme concentration may need to be adjusted to yield 10-20% conversion of substrate to product.

T1 sequence (P10721 26-976): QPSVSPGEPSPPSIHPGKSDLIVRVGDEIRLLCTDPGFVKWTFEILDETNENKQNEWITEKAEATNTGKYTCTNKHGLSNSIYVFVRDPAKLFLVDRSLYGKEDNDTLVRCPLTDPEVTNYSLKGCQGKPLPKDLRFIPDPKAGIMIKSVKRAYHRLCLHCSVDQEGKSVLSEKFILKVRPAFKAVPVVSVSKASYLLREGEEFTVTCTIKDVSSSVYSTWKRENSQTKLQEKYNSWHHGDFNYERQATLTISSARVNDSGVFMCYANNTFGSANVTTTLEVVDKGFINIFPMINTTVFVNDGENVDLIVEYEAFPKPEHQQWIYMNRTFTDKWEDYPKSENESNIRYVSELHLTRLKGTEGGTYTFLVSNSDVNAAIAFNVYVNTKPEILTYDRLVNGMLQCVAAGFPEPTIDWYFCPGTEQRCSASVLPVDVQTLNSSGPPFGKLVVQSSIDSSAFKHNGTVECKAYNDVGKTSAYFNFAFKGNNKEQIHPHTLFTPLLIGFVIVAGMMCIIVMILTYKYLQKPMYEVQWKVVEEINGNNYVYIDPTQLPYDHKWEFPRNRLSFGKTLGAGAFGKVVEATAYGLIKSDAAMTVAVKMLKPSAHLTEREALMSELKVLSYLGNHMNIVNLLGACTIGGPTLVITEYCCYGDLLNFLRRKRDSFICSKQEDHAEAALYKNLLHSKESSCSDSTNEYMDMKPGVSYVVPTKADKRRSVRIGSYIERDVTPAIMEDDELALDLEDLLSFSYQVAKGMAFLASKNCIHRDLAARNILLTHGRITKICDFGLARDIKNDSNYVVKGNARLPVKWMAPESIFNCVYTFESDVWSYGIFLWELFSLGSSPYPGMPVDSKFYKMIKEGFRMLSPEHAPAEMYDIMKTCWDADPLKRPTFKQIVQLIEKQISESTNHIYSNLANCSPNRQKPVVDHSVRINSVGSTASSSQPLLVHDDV

| IC50 | Compound |
| --- | --- |
| ≤ 50 nM | Cc1ccc(-c2noc(C3CC3F)n2)cc1NC(=O)c1cnc2cc(C(C)OCCO)ccn12 (single isomer, unassigned) [Compound I-450, N-[5-[5-[(1R,2S)-2-fluorocyclopropyl]-1,2,4-]-7-[(1S*)-1-(2-hydroxyethoxadiazol-3-yl]-2-methyl-phenyloxy)ethyl]imidazo[1,2-a]pyridine-3-carboxamide] |
| ≤ 50 nM | Cc1ccc(-c2noc([C@H]3C[C@@H]3F)n2)cc1NC(=O)c1cnc2cc(COCC(C)O)ccn12 (single isomer, unassigned) [Compound I-469, N-[5-[5-[(1R,2S)-2-fluorocyclopropyl]-1,2,4-oxadiazol-3-yl]-2-methyl-phenyl]-7-[[(2S*)-2-hydroxypropoxy]methyl]imidazo[1,2-a]pyridine-3-carboxamide] |
| 50 to 500 nM | Cc1ccc(-c2noc(CC(O)C(F)F)n2)cc1NC(=O)c1cnc2cc(COCCO)ccn12 (single isomer, unassigned) [Compound I-511] |
| ≤ 50 nM | Cc1ccn2c(C(=O)Nc3cc(-c4noc(CCC(C)(O)C(F)(F)F)n4)ccc3C)cnc2c1 (single isomer, unassigned) [Compound I-516] |
| 50 to 500 nM | Cc1nc(-c2ccc(C)c(NC(=O)c3cnc4cc(OC5CCOC5)ccn34)c2)no1 (single isomer, unassigned) [Compound I-748] |
| ≤ 50 nM | Cc1ccc(-c2noc([C@H]3C[C@@H]3F)n2)cc1NC(=O)c1cnc2cc(CCCC(C)(C)O)ccn12 [Compound I-452, N-[5-[5-[(1R,2S)-2-fluorocyclopropyl]-1,2,4-oxadiazol-3-yl]-2-methyl-phenyl]-7-(4-hydroxy-4-methyl-pentyl)imidazo[1,2-a]pyridine-3-carboxamide] |
| ≤ 50 nM | Cc1ccc(-c2noc([C@H]3C[C@@H]3F)n2)cc1NC(=O)c1cnc2ccc(COCCO)cn12 [Compound I-453, N-[5-[5-[(1R,2S)-2-fluorocyclopropyl]-1,2,4-oxadiazol-3-yl]-2-methyl-phenyl]-6-(2-hydroxyethoxymethyl)imidazo[1,2-a]pyridine-3-carboxamide] |
| 50 to 500 nM | COC(C)(C)COCc1ccn2c(C(=O)Nc3cc(-c4noc([C@H]5C[C@@H]5F)n4)ccc3C)cnc2c1 [Compound I-465] |
| ≤ 50 nM | Cc1ccc(-c2noc([C@H]3C[C@@H]3F)n2)cc1NC(=O)c1cnn2cc(COCC(C)(C)O)ccc12 [Compound I-466, N-[5-[5-[(1R,2S)-2-fluorocyclopropyl]-1,2,4-oxadiazol-3-yl]-2-methyl-phenyl]-6-[(2-hydroxy-2-methylpropoxy)methyl]pyrazolo[1,5-a]pyridine-3-carboxamide] |
| ≤ 50 nM | Cc1ccc(-c2noc([C@H]3C[C@@H]3F)n2)cc1NC(=O)c1cnc2cc(CCOCC(C)(C)O)ccn12 [Compound I-467, N-(5-(5-((1R,2S)-2-fluorocyclopropyl)-1,2,4-oxadiazol-3-yl)-2-methylphenyl)-7-(2-(2-hydroxy-2-methylpropoxy)ethyl)imidazo[1,2-a]pyridine-3-carboxamide] |
| ≤ 50 nM | Cc1ccc(-c2noc([C@H]3C[C@@H]3F)n2)cc1NC(=O)c1cnc2cc(CCC(C)(C)CO)ccn12 [Compound I-474, N-[5-[5-[(1R,2S)-2-fluorocyclopropyl]-1,2,4-oxadiazol-3-yl]-2-methyl-phenyl]-7-(4-hydroxy-3,3-dimethyl-butyl)imidazo[1,2-a]pyridine-3-carboxamide] |
| ≤ 50 nM | Cc1ccc(-c2noc([C@H]3C[C@@H]3F)n2)cc1NC(=O)c1cnc2cc(COCC(=O)O)ccn12 [Compound I-477, 2-((3-((5-(5-((1R,2S)-2-fluorocyclopropyl)-1,2,4-oxadiazol-3-yl)-2-methylphenyl)carbamoyl)imidazo[1,2-a]pyridin-7-yl)methoxy)acetic acid] |

The remaining lines, values behind:

| Compound | IC50 |
| --- | --- |
| Cc1ccc(-c2noc([C@H]3C[C@@H]3F)n2)cc1NC(=O)c1cnc2cc(C(C)OCCO)ccn12 (relative stereo) [Compound I-451, N-[5-[5-[(1R,2S)-2-fluorocyclopropyl]-1,2,4-oxadiazol-3-yl]-2-methyl-phenyl]-7-[(1R*)-1-(2-hydroxyethoxy)ethyl]imidazo[1,2-a]pyridine-3-carboxamide] | ≤ 50 nM |
| Cc1ccc(-c2noc([C@H]3C[C@@H]3F)n2)cc1NC(=O)c1cnc2cc(COCC(C)O)ccn12 (single isomer, unassigned) [Compound I-468, N-[5-[5-[(1R,2S)-2-fluorocyclopropyl]-1,2,4-oxadiazol-3-yl]-2-methyl-phenyl]-7-[[(2R*)-2-hydroxypropoxy]methyl]imidazo[1,2-a]pyridine-3-carboxamide] | ≤ 50 nM |
| Cc1ccc(-c2noc([C@H]3C[C@@H]3F)n2)cc1NC(=O)c1cnc2cc3c(cn12)COC3C (single isomer, unassigned) [Compound I-470, (6S*)—N-[5-[5-[(1R,2S)-2-fluorocyclopropyl]-1,2,4-oxadiazol-3-yl]-2-methyl-phenyl]-6-methyl-5-oxa-1,10-diazatricyclo[7.3.0.03,7]dodeca-2,7,9,11-tetraene-12-carboxamide] | ≤ 50 nM |
| Cc1ccc(-c2noc([C@H]3C[C@@H]3F)n2)cc1NC(=O)c1cnc2cc3c(cn12)COC3C (single isomer, unassigned) [Compound I-471, (6R*)—N-[5-[5-[(1R,2S)-2-fluorocyclopropyl]-1,2,4-oxadiazol-3-yl]-2-methyl-phenyl]-6-methyl-5-oxa-1,10-diazatricyclo[7.3.0.03,7]dodeca-2,7,9,11-tetraene-12-carboxamide] | ≤ 50 nM |
| Cc1ccc(-c2noc([C@H]3C[C@@H]3F)n2)cc1NC(=O)c1cnc2cc3c(cn12)C(C)OC3 (single isomer, unassigned) [Compound I-482, (4S*)—N-[5-[5-[(1R,2S)-2-fluorocyclopropyl]-1,2,4-oxadiazol-3-yl]-2-methyl-phenyl]-4-methyl-5-oxa-1,10-diazatricyclo[7.3.0.0^3,7]dodeca-2,7,9,11-tetraene-12-carboxamide] | ≤ 50 nM |
| Cc1ccc(-c2noc([C@H]3C[C@@H]3F)n2)cc1NC(=O)c1cnc2cc3c(cn12)C(C)OC3 (single isomer, unassigned) [Compound I-483, (4R*)—N-[5-[5-[(1R,2S)-2-fluorocyclopropyl]-1,2,4-oxadiazol-3-yl]-2-methyl-phenyl]-4-methyl-5-oxa-1,10-diazatricyclo[7.3.0.0^3,7]dodeca-2,7,9,11-tetraene-12-carboxamide] | ≤ 50 nM |
| Cc1ccn2c(C(=O)Nc3cc(-c4noc(CCC(C)(O)C(F)(F)F)n4)ccc3C)cnc2c1 (single isomer, unassigned) [Compound I-515] | ≤ 50 nM |
| Cc1nc(-c2ccc(C)c(NC(=O)c3cnc4cc(C5CCNC5=O)ccn34)c2)no1 (stereo not drawn) [Compound I-448] | 500 to 5000 nM |
| Cc1ccc(-c2noc([C@H]3C[C@@H]3F)n2)cc1NC(=O)c1cnc2cc(COCCS(C)(=O)=O)ccn12 [Compound I-454, N-[5-[5-[(1R,2S)-2-fluorocyclopropyl]-1,2,4-oxadiazol-3-yl]-2-methyl-phenyl]-7-(2-methylsulfonylethoxymethyl)imidazo[1,2-a]pyridine-3-carboxamide] | ≤ 50 nM |
| Cc1ccc(-c2noc([C@H]3C[C@@H]3F)n2)cc1NC(=O)c1cnc2ccc(COCC(C)(C)O)cn12 [Compound I-455, N-[5-[5-[(1R,2S)-2-fluorocyclopropyl]-1,2,4-oxadiazol-3-yl]-2-methyl-phenyl]-6-[(2-hydroxy-2-methyl-propoxy)methyl]imidazo[1,2-a]pyridine-3-carboxamide] | ≤ 50 nM |
| Cc1ccc(-c2noc([C@H]3C[C@@H]3F)n2)cc1NC(=O)c1cnc2cc(C(C)(C)O)ccn12 [Compound I-456] | ≤ 50 nM |
| Cc1ccc(-c2noc([C@H]3C[C@@H]3F)n2)cc1NC(=O)c1cnc2ccc(C(C)(C)O)cn12 [Compound I-457, N-(5-(5-((1R,2S)-2-fluorocyclopropyl)-1,2,4-oxadiazol-3-yl)-2-methylphenyl)-6-(2-hydroxypropan-2-yl)imidazo[1,2-a]pyridine-3-carboxamide] | ≤ 50 nM |
| Cc1ccc(-c2noc([C@H]3C[C@@H]3F)n2)cc1NC(=O)c1cnc2cc(CC(C)(C)O)ccn12 [Compound I-460] | 50 to 500 nM |
| Cc1ccc(-c2noc([C@H]3C[C@@H]3F)n2)cc1NC(=O)c1cnc2cc(C(C)(C)CO)ccn12 [Compound I-464] | 50 to 500 nM |
| Cc1ccc(-c2noc([C@H]3C[C@@H]3F)n2)cc1NC(=O)c1cnc2c(F)c(COCCO)ccn12 [Compound I-472] | 50 to 500 nM |
| Cc1ccc(-c2noc([C@H]3C[C@@H]3F)n2)cc1NC(=O)c1cnc2c(F)c(COCC(C)(C)O)ccn12 [Compound I-473] | 50 to 500 nM |
| Cc1ccc(-c2noc([C@H]3C[C@@H]3F)n2)cc1NC(=O)c1cnc2cc(CCOCCO)ccn12 [Compound I-475, N-[5-[5-[(1R,2S)-2-fluorocyclopropyl]-1,2,4-oxadiazol-3-yl]-2-methyl-phenyl]-7-[2-(2-hydroxyethoxy)ethyl]imidazo[1,2-a]pyridine-3-carboxamide] | ≤ 50 nM |
| Cc1ccc(-c2noc(CC(O)C(F)F)n2)cc1NC(=O)c1cnc2ccccn12 (stereo not drawn) [Compound I-476] | ≤ 50 nM |
